Molecules are shown by their SMILES. In brackets after ≈: the same amount, converted by molar mass.

The record followed here is ChEMBL document CHEMBL5126551, “Spiral molecules with antimalarial activities: A review” (Eur J Med Chem, 2022).

Data set [1] concerns Plasmodium falciparum. In words: Antimalarial activity against chloroquine resistant Plasmodium falciparum K1 assessed as inhibition of parasite growth by [3H]-hypoxanthine incorporation assay. The format is functional, organism-based.
Data set [2] concerns Plasmodium falciparum. In words: Antimalarial activity against chloroquine sensitive Plasmodium falciparum NF54 assessed as inhibition of parasite growth by [3H]-hypoxanthine incorporation assay. The format is functional, organism-based.
The test system of data set [3] is Plasmodium falciparum. In words: Antimalarial activity against chloroquine resistant Plasmodium falciparum K1 infected in human erythrocyte assessed as inhibition of parasite growth preincubated with compound for 24 hrs followed by hypoxanthine addition and measured after 24 hrs by [3H]-hypoxanthine incorporation based liquid scintillation counter. The format is functional, organism-based.

The test system of data set [4] is Plasmodium falciparum. The data set can be described thus: Antimalarial activity against chloroquine sensitive Plasmodium falciparum 3D7 infected in human erythrocyte assessed as inhibition of parasite growth preincubated with compound for 24 hrs followed by hypoxanthine addition and measured after 24 hrs by [3H]-hypoxanthine incorporation based liquid scintillation counter. The format is functional, organism-based. The conditions noted are these: 3D7, Erythrocyte.

In data set [5] the test system is Plasmodium berghei. In words: Antimalarial activity against Plasmodium berghei GFP ANKA infected in NMRI mouse assessed as reduction in blood parasitemia level measured on day 4 by FACS analysis. The format is functional, organism-based.
Data set [6] deals with Plasmodium falciparum. The data set can be described thus: Antimalarial activity against chloroquine-sensitive Plasmodium falciparum 3D7 infected in human erythrocyte assessed as inhibition of parasite growth incubated for 66 hrs by [3H]-hypoxanthine incorporation assay based liquid scintillation spectrometric method. The format is functional, organism-based. The conditions noted are these: 3D7, Erythrocyte.

In data set [7] the test system is Plasmodium falciparum. In words: Antimalarial activity against Plasmodium falciparum 3D7 assessed as inhibition of parasite growth. The format is functional, organism-based.
In data set [8] the test system is Plasmodium falciparum. In words: Antimalarial activity against Plasmodium falciparum Dd2 assessed as inhibition of parasite growth. The format is functional, organism-based.
For data set [9], the system named is Plasmodium falciparum. The data set can be described thus: Antimalarial activity against highly chloroquine resistant Plasmodium falciparum FcM29 assessed as inhibition of parasite growth measured after 48 hrs by classical radioactive microdilution method. The format is functional, organism-based. Conditions: FcM29, 48 h.
Data set [10] has as its system Plasmodium falciparum. The data set can be described thus: Antimalarial activity against chloroquine resistant Plasmodium falciparum FcR3 assessed as inhibition of parasite growth measured after 48 hrs by classical radioactive microdilution method. The format is functional, organism-based. The conditions noted are these: FcR3, 48 h.
Data set [11] concerns Plasmodium falciparum. The data set can be described thus: Antimalarial activity against chloroquine sensitive Plasmodium falciparum infected in human red blood cells assessed as inhibition of liberation and reinvasion steps of the erythrocytes by parasites measured after 72 hrs by titrated hypoxanthine incorporation assay. Conditions: Erythrocyte. The format is functional, organism-based, Red blood cell.

Data set [12] concerns Plasmodium falciparum. The data set can be described thus: Antimalarial activity against chloroquine resistant Plasmodium falciparum FcB1 infected in human red blood cells assessed as inhibition of liberation and reinvasion steps of the erythrocytes by parasites measured after 72 hrs by titrated hypoxanthine incorporation assay. The format is functional, organism-based, Red blood cell. The conditions noted are these: FcB1, Erythrocyte.

For data set [13], the system named is Plasmodium falciparum. The data set can be described thus: Antimalarial activity against chloroquine-sensitive Plasmodium falciparum D6 assessed as inhibition of parasite growth by parasite lactate dehydrogenase assay. The format is functional, organism-based.
The subject of data set [14] is Plasmodium falciparum. The data set can be described thus: Antimalarial activity against chloroquine-resistant Plasmodium falciparum W2 assessed as inhibition of parasite growth by parasite lactate dehydrogenase assay. The format is functional, organism-based.
The test system of data set [15] is Plasmodium berghei. The data set can be described thus: Antiplasmodial activity against luciferase expressing hepatic stage Plasmodium berghei sporozoites infected in human Huh-7 cells assessed as inhibition of parasite infection preincubated with cells for 1 hrs followed by parasite infection and measured after 48 hrs by bioluminescence assay. The format is functional, organism-based.

The test system of data set [16] is Plasmodium falciparum. In words: Antimalarial activity against Plasmodium falciparum K1 assessed as inhibition of parasite growth. The format is functional, organism-based.
Data set [17] concerns Plasmodium falciparum. The data set can be described thus: Antimalarial activity against chloroquine-resistant Plasmodium falciparum W2 assessed as inhibition of parasite growth. The format is functional, organism-based.
The subject of data set [18] is Plasmodium falciparum. The data set can be described thus: Antimalarial activity against chloroquine and quinine sensitive Plasmodium falciparum assessed as inhibition of parasite growth. The format is functional, organism-based.
Data set [19] is described as follows: Metabolic stability in Sprague-Dawley rat assessed as Cmax of 97-63 metabolite by LC-MS/MS analysis. The format is ADME.
Data set [20] is described as follows: Apparent oral volume of distribution in Sprague-Dawley rat by LC-MS/MS analysis. The format is ADME. The conditions noted are these: in vivo.
A short description of data set [21]: Metabolic stability in Sprague-Dawley rat assessed as Tmax of 97-63 metabolite by LC-MS/MS analysis. The format is ADME.
The nature of data set [22]: Metabolic stability in Sprague-Dawley rat assessed as AUC(0 to t) of 97-63 metabolite by LC-MS/MS analysis. The format is ADME.
Data set [23] can be described thus: Metabolic stability in Sprague-Dawley rat assessed as AUC(0 to infinity) of 97-63 metabolite by LC-MS/MS analysis. The format is ADME. Details: time infinity.
Data set [24] can be described thus: Metabolic stability in Sprague-Dawley rat assessed as half-life of 97-63 metabolite by LC-MS/MS analysis. The format is ADME.
For data set [25], the system named is Plasmodium falciparum. The data set can be described thus: Antimalarial activity against chloroquine-resistant Plasmodium falciparum K14 infected in human red blood cells assessed as inhibition of parasite growth incubated for 42 hrs by [3H]-hypoxanthine incorporation assay. The format is functional, organism-based, Red blood cell. Conditions: K14, Erythrocyte.

For data set [26], the system named is Plasmodium falciparum. In words: Antimalarial activity against chloroquine-sensitive Plasmodium falciparum 3D7 infected in human erythrocytes assessed as inhibition of parasite growth incubated for 48 hrs by parasite lactate dehydrogenase based colorimetric assay. The format is functional, organism-based. Conditions: 3D7, 48 h.
For data set [27], the system named is Plasmodium falciparum. The data set can be described thus: Antimalarial activity against chloroquine-resistant Plasmodium falciparum FCR3 infected in human erythrocytes assessed as inhibition of parasite growth incubated for 48 hrs by [3H]-hypoxanthine incorporation assay. The format is functional, organism-based.

In the case of `c1cc(C2CCC3(CC2)OOC2(O3)C3CC4CC(C3)CC2C4)ccc1OCCN1CCOCC1` (stereo unspecified), the IC50 in [1] and in [2] was 2.8 ng/mL (≈ 5.96 nM) in each case.

With `CN1CCN(C2CCN(C(=O)CC3CCC4(CC3)OOC3(OO4)C4CC5CC(C4)CC3C5)CC2)CC1` (stereo unspecified), the half-inhibitory concentration (IC50) in [3] was found to be 0.0011 µM. For the same molecule, the IC50 in [4] came out at 0.0008 µM. Also, in data set [5], the EC50 stood at 1.33 mg/kg and the EC90 came out at 4.18 mg/kg.

In the case of `CCCCCCCCCCCCCCC[C@@H](O)CC1(OC)CCC2(C=CC(=O)C=C2)O1` (stereo partly specified), in [6], the IC50 amounted to 0.48 µM.

Consider `C1CCCCCC2(CCCCC1)OOCCCOO2`, for which the EC50 in data set [7] was determined as 0.268 µM; in [8], 0.897 µM.

As for `CC1(C)COC2(CCC(NC3CCC(Nc4ccnc5cc(Cl)ccc45)CC3)CC2)OO1` (stereo unspecified), the IC50 was found to be 0.01 µM in [9] and 0.012 µM in data set [10].

For `Clc1ccc2c(NCCNC3CCC4(CC3)OOC3(c5ccccc5)CC(c5ccccc5)=CC3O4)ccnc2c1` (stereo unspecified), the results for the IC50 in [11] and in [12] were 0.008 µM and 0.021 µM, respectively.

On to `Cc1ccc(S(=O)(=O)N2CCC3(CC2)OOC(C2CCC(C)CC2)OO3)cc1` (stereo unspecified), for which the IC50 in data set [13] was 0.7 µM; in data set [14], 0.83 µM.

With `Cc1ccc(C2OOC3(CCN(S(=O)(=O)c4ccccc4)CC3)OO2)cc1`, the figures for the IC50 in [13] and in [14] were 0.3 µM and > 0.2 µM, respectively.

Regarding `CC(C)(C)C(=O)C1C(c2ccccc2)(c2ccccc2)N=NC12C(=O)N1[C@@H](C(=O)OC(c3ccccc3)c3ccccc3)C(C)(C)S[C@@H]12` (stereo partly specified), in [15], the IC50 was 3.32 µM.

Turning to `COC(=O)C12C=C(OC)[C@]3(Cl)C(C)(C=C(C4=C[C@H](O)[C@@H]5O[C@]5(CC=C(C)C)[C@@H]4O)[C@]3(O)C13OC(=O)c1c(O)cc(C)cc1O3)C2` (stereo partly specified), the IC50 in data set [16] is 2.71 µM.

`CC(C)(N)CNC(=O)C(=O)OC1CCCC2(C1)OOC1(O2)C2CC3CC(C2)CC1C3` (stereo unspecified): the IC50 in data set [1] worked out at 1 ng/mL (≈ 2.37 nM); in [2] it was 0.91 ng/mL (≈ 2.15 nM).

On to `COC(=O)C1=CO[C@@H](C)[C@@H]2CN3CC[C@@]4(C(=O)Nc5ccccc54)[C@H]3C[C@H]12`, for which, in data set [17], the IC50 was 17000 ng/mL (≈ 46200 nM).

`CCOC(=O)C1=C2N=C(c3ccncc3)NN2C2=C(C(=O)CCC2)C12C(=O)Nc1ccccc12` (stereo unspecified): the IC50 in data set [18] worked out at 0.295 µM.

For `O=C(O)CC1CCC2(CC1)OOC1(O2)C2CC3CC(C2)CC1C3` (stereo unspecified), the IC50 in data set [1] is 34 ng/mL (≈ 105 nM); in data set [2], 45 ng/mL (≈ 140 nM).

Take `C=C(c1ccc(OC(C)(C)COC(=O)CCC(=O)O)cc1)C1OCC2(OO1)C1CC3CC(C1)CC2C3` (stereo unspecified): the peak concentration (Cmax) in [19] was determined as 1.35 µg/mL. Moreover, the Vd/F in data set [20] stood at 7.81 L/kg. Further, in data set [21], the Tmax was 2.2 h. In data set [22], the AUCt is 9.1 µg·h/mL. Also, the AUC in [23] worked out at 9.15 µg·h/mL. Besides, the t1/2 in [24] turned out to be 9.27 h.

`COC(=O)C12C=C(OC)[C@@]3(Cl)C(C)(C=C(C4=C[C@H](O)[C@@H]5O[C@]5(CC=C(C)C)[C@@H]4O)[C@@]3(O)C13OC(=O)c1c(O)cc(C)cc1O3)C2` (stereo partly specified): the IC50 in [16] came out at 5.73 µM.

For the molecule `CCOc1ccc(N2C(=O)C3(c4ccccc4Cc4ccccc43)C23c2ccccc2-c2ccccc23)cc1`, the IC50 in data set [25] worked out at 5 µM.

On to `COc1cc([C@@H]2c3cc(Cl)ccc3NC3(C(=O)Nc4ccccc43)[C@H]2C)ccc1O` (stereo partly specified), for which the values for the IC50 in data set [26] and in [27] were 1.8 µM and 1.67 µM, respectively.

For the molecule `CC(C)OC(=O)C1=C2N=C(c3ccncc3)NN2C2=C(C(=O)CCC2)C12C(=O)Nc1ccccc12` (stereo unspecified), in [18], the IC50 amounted to 0.246 µM.
